| Structure (SMILES) | melting point [°C] |
| --- | --- |
| O=P(O)(O)Oc1cccc(-c2cn3c(n2)sc2ccccc23)c1 | 205 to 208 |
| O=C(NCCCc1ccncc1)N(C1CCCCC1)C1CCCCC1 | 143 to 146 |
| NC(=O)N(O)C/C=C/c1cccc(C2=NOC(c3ccc(F)cc3)C2)c1 (stereo not given) | 159 to 160 |
| C[C@H](N[C@@H](CCc1ccccc1)C(=O)O)C(=O)N1C(=O)N(C)C[C@H]1C(=O)O | 240 |
| Clc1ccc(Cn2c(-c3ccccn3)nc3ccccc32)cc1Cl | 227 to 229 |
| OC1CSC(Oc2cncc(-c3ncccc3Cl)c2)C(O)C1O (stereo not given) | 193 |
| CCOC(=O)c1ccc(N)cc1F | 110 to 112 |
| O=c1cc(-c2ccncc2)nc2n1CC(O)CN2 (stereo not given) | 305 to 307 |
| CCCOc1nsc(N)c1C#N | 122 to 125 |
| O=C(NC(Cc1ccccc1)C(=O)O)c1ccc2cc(NCc3ccccc3)ccc2c1 (stereo not given) | 172 |
| O=C(O)CCCc1cccc(OCc2ccccc2)c1 | 100 to 102 |
| O=C1CCCC(Sc2ccccc2)C(c2ccccc2)O1 (stereo not given) | 166 |
| CCOC(=O)C1=C(N)NC(C)=C(C(=O)O)C1c1ccccc1-c1ccccc1 (stereo not given) | 182 |
| C=CCN1CCCC1CNC(=O)c1cc(S(=O)(=O)CC)cc2c1OCCO2 (stereo not given) | 78 to 80 |
| O=C(N1CCC(N2CCOCC2)CC1)C12CC(c3ccccc31)c1ccccc12 | 179 to 180 |
| Cc1nc(-n2ccc(OCC3CC3)cc2=O)sc1C(=O)NCc1ccccc1 | 218 to 220 |
| CC(C)=CCc1cc(C(=O)C=Cc2ccc(O)cc2)c(O)cc1O | 157 to 158 |
| COc1cccc(C2=C(C#N)C(c3cccc4nonc34)c3c[nH]nc3N2)c1 (stereo not given) | 198 |
| O=C(NCCO)/C(=C/c1ccc(C2CC2)cc1)NC(=O)c1ccc(OCCc2ccccc2)cc1 | 113 to 115 |
| O=C(NCCCC(NC(=O)c1ccccc1)C(O)C(F)(F)F)c1ccccc1 (stereo not given) | 103 |
| CC=CCNc1cc(C(=O)O)cc(S(N)(=O)=O)c1Sc1ccc(NC(C)=O)cc1 | 148 |
| CN(C)C1CCc2c(ccc(O)c2C(N)=O)C1 (stereo not given) | 65 to 66 |
| FC(F)(F)c1ccc(-c2ccc(CCl)cn2)cc1 | 73 |
| ClC=C(c1ccc(Cl)cc1)c1ccc(Cl)cc1 | 65 to 67 |
| Cc1ccc(CCCc2c(C)nc(N)nc2N)cc1 | 210 to 213 |
| CN1CCN(CCC/C=C/c2ccc3c(Nc4ccc(Sc5nccn5C)c(Cl)c4)c(C#N)cnc3c2)CC1 | 219 to 227 |
| CC(C)Oc1nc(N)nc2ccc(-c3ccc(F)cc3)nc12 | 191 to 192 |

| Structure (SMILES) | melting point [°C] |
| --- | --- |
| N=C(NO)C1=Cc2cc(O)c(O)cc2CC1 | 183 to 185 |
| CCCCCCCCCCCCOC(=O)NCCCCC(N)C(=O)O (stereo not given) | > 260 |
| Cc1cc(C(=O)O)ccc1C#CCc1ccc2c(c1)C(C)(C)CCC2(C)C | 196 to 197 |
| CC(C)(C)c1nc(-c2ncn3c2COC(=O)c2ccccc2-3)no1 | 210 to 211 |
| O=C1c2ccccc2C(=O)N1c1c(F)cc(Cl)c2c1CCCO2 | 198 to 200 |
| COc1ccc(C=C(C)[N+](=O)[O-])c(OC)c1OC | 57 to 58 |
| CC(C(=O)O)c1ccc2oc(-c3cccnc3)nc2c1 (stereo not given) | 197 to 200 |
| CC(C)Cc1cccc(-c2nc(C(C)C)n(C)n2)n1 | 80.1 |
| O=C(Cn1c(-c2ccc(Cl)cc2)nc2cccnc21)N(c1ccccc1)c1ccccc1 | 176 to 178 |
| CC(C)(C)NC(=O)c1ccc2[nH]ccc2c1 | 176 |
| COc1ccc2ccc(OC)c(C=O)c2c1 | 94 |
| CCN(CC)c1cccc(-c2ccc(C(=O)O)c(=O)[nH]2)c1 | 256 to 258 |
| CCCSc1nc(-c2ccc(C#N)cc2)cn1-c1ccc(C#N)cc1 | 117 to 122 |
| CCOC(=O)c1nn(-c2ccccc2Cl)c(=O)c(C#N)c1C | 93 to 95 |
| CS(=O)(=O)c1ccc(-n2nc(C(F)(F)F)cc2-c2ccc(-c3cscn3)c(Cl)c2)cc1F | 108 to 110 |
| O=C1C=C(Oc2ccc(C3CCCC3)cc2)C(O)O1 (stereo not given) | 101 to 103 |
| COCCn1nc2c(N)nc3ncccc3c2c1CC(C)(C)O | 233 to 236 |
| COC(=O)c1ccc(OC2=C(Oc3ccc(C(=O)OC)cc3)C(F)(F)C(F)(F)C2(F)F)cc1 | 67 |
| O=c1cc2c(nn1-c1ccc(Cl)cc1)-c1cccc(Cl)c1S(=O)CC2 (stereo not given) | 217 to 219 |
| CC(C)(C)c1ccc(C(NC(=O)c2c(F)cccc2F)N2CCOCC2)cc1 (stereo not given) | 199 to 200 |
| O=C(OCC(=O)N1CCCC1=O)c1ccccc1 | 83 to 84 |
| CCCCOC(=O)NC(=O)C(C)(c1ccccc1)c1ccccc1 | 83 |
| COc1ccc(C(=O)CCC(=O)O)cc1CO | 217 to 218 |
| c1ccc(C2Cn3c(nc4cc5ccccc5cc43)S2)nc1 (stereo not given) | 198 |
| CCCCCCCCCCCCCCCCCc1nc(C(C)N)c[nH]1 (stereo not given) | 38 to 40 |
| CC(=O)C(Cc1cc(C(C)(C)C)c(O)c(C(C)(C)C)c1)(Cc1cc(C(C)(C)C)c(O)c(C(C)(C)C)c1)C(=O)OC1CC(C)(C)NC(C)(C)C1 | 177 to 178 |
| CCC1(CCCCCl)C(=O)Nc2c(Cl)cc(Cl)cc21 (stereo not given) | 65 to 67 |

| Structure (SMILES) | melting point [°C] |
| --- | --- |
| O=C(NCCCN1CCN(Cc2ccc(Cl)cc2)CC1)Nc1ccccc1 | 135 to 137 |
| CC(C)(C)C(=O)Oc1cc2c(c3ccccc13)Nc1ccccc1S2 | 142 |
| COc1cc(C(=O)c2csc(-c3ccncc3)n2)cc(OC)c1OC | 178 to 180 |
| COc1cccc(C23CC(=O)NC(=O)C2=CCC(C)C3)c1 (stereo not given) | 218 to 221 |
| CSc1cc(-c2ccccc2)ccc1C1=NC(C)(C)CO1 | 93 to 95 |
| CCOc1cccc(F)c1C1OC(=O)NC1=O (stereo not given) | 127 to 128 |
| COc1ccc(C(=O)Nc2ccccc2)cc1NCc1ccc(C)cc1 | 184 to 186 |
| O=C(NC(Cc1c[nH]c2ccccc12)C(=O)O)c1ccccc1Cl (racemic) | 56 to 70 |
| Cc1cccc(Nc2nnc(C3OCOCO3)c3ccccc23)c1 | 161 |
| Cc1cc(CCCCNc2nc(CO)nn2C)sc1C=O | 118 to 121 |
| OC1CSC(Oc2ccc(-c3ccc(F)nc3)nc2Cl)C(O)C1O (stereo not given) | 199 |
| Cc1csc2c1cc(C(=O)c1ccccc1)n2CC(=O)O | 197 |
| CCNc1nc2ccc(COc3cccc(CN4CCCCC4)c3)cc2o1 | 105 to 106 |
| NC1=NN(c2cccc(F)c2)C(c2ccccc2)C1 (stereo not given) | 165 to 166 |
| OCc1ccc(OCc2csc(-c3ccccc3)n2)cc1 | 145 to 146 |
| CC(=O)c1nc(C)c[nH]1 | 113 to 115 |
| CCC1CC(=O)N(Cc2ccc(NC(C)=O)cc2)N=C1c1ccc(OC)c(OC)c1 (stereo not given) | 133 |
| CC(C)c1nc(CN=[N+]=[N-])n(Cc2cccnc2)c1Sc1cc(Cl)cc(Cl)c1 | 99 to 103 |
| CCOC(=O)c1cc2c(cn1)[nH]c1ccccc12 | 229 |
| COc1ccc(C(=O)n2c3c(c4cc(F)ccc42)CC(C(=O)O)CC3)cc1 (stereo not given) | 197 to 198 |
| COc1ccc2c(c1)CC(=O)NC2c1ccc(Cl)cc1 (stereo not given) | 200 to 201 |
| CCOC(=O)CCCCCCCCOC1OC(CO)C(O)C(O)C1NC(C)=O (stereo not given) | 112 |
| COC(=O)C=CC1=CC2=CNC=C3CC(N(C)C)C(=C23)CO1 (stereo not given) | 168 to 170 |
| O=C1Nc2ccccc2N2CCCC12 (stereo not given) | 169 to 172 |
| Cc1cc(-n2ccnc2)c2cccc(OCc3c(Cl)ccc(S(=O)(=O)N4CCC[C@H]4C(=O)N4CCN(C(=O)OC(C)(C)C)CC4)c3Cl)c2n1 | 98 |
| CCOC(=O)C1(C)OC2(O)C3CCCN3C(=O)C(Cc3ccccc3)N2C1=O (stereo not given) | 134 to 136 |
| Cc1noc2cc3c(cc12)C1(CO3)C(=O)N(Cc2ccc(C(F)(F)F)o2)c2ccccc21 (stereo not given) | 111 to 112 |

| Structure (SMILES) | melting point [°C] |
| --- | --- |
| O=C1CN2C(=N1)NCc1c(Cl)cccc12 | 127 to 129 |
| Cc1cccc(-c2[nH]c(C(C)C)nc2-c2ccc(F)c(-c3ccc(S(C)(=O)=O)cc3)c2)n1 | 113 to 115 |
| Cc1cc(C)c(=O)n(C(C(=O)O)c2ccc3c(c2)OCO3)n1 (stereo not given) | 165 |
| CCC(c1ccccc1)c1n[nH]c2c1c(=O)n(-c1ccccc1)c1ncccc21 (stereo not given) | 233 to 235 |
| C=CC(=O)NCc1c(-c2ccccc2)n[nH]c1C | 191 to 193 |
| FC(F)(F)Sc1c(Cl)c(Cl)c(CBr)c(Cl)c1Cl | 117 to 118 |
| O=C1c2ccc([N+](=O)[O-])cc2COc2cc(-n3cnnn3)ccc21 | 123 to 126 |
| COc1ccc2c(C(=O)N3CCC[C@H]3C(=O)O)cc3cc4c(cc3c2c1)OCO4 | 207 to 208 |
| COc1ccc(C=NO)cc1OCCCCCc1ccccc1 | 65 to 67 |
| O=C(O)Cc1ccc(CCNC(=O)c2ccc(Cl)cc2)cc1 | 182 to 183 |
| COC(=O)c1nc(N)ccc1O | 170 to 173 |
| Cc1c(C)c2c(c(C)c1N)C(c1ccc(C(C)C)cc1)C(C)(C)O2 (stereo not given) | 130 to 132 |
| COc1cc(Nc2c(C#N)cnc3cc(/C=C/c4ccncc4)ccc23)c(Cl)cc1Cl | 218 to 219 |
| O=Cc1cccc(-c2cc(-c3ccc(C(F)(F)F)cc3)no2)c1 | 151 to 152 |
| Cc1cc(C)c(S(=O)(=O)NCCCCOc2ccc(-n3ccnc3)cc2)c(C)c1 | 130 to 131 |
| COc1ccc(OC)c(C2(O)CCCCC2C(c2ccccc2)N(C)C)c1 (stereo not given) | > 240 |
| Cc1ccc2c(c1)N(C(=O)CN(C)C)c1ccccc1S(=O)(=O)N2C | 135 to 137 |
| FC(F)(F)COC(c1ccccc1)(c1ccccc1)c1ccccc1 | 111 |
| N=C(N)c1ccc2cc(OC(=O)CCCCCN)ccc2c1 | 122 to 123 |
| NC(=O)CN1CC(OCc2ccccc2)=CC1=O | 174 to 176 |
| CSc1snc(SCOCC#CI)c1C#N | 87 to 88 |
| O=c1c2ccccc2nc(-c2cc(-c3ccncc3)c(N3CCOCC3)s2)n1-c1ccccc1 | 230 to 231 |
| O=CCCc1cn(-c2cccnc2)c2ccccc12 | 44 to 45 |
| O=CNc1ccccc1CCO | 49 to 54 |
